US20120164104A1, “Composition and Methods of Treating Viral Infections and Viral Induced Tumors” (Chimerix, Inc., priority 2009, published 2012)

System: BKV
Experiment: Stability of CMX001 stock solution, tested by antiviral effect on extracellular BKV load
Assay type: cell-based
Settings: diluted to 0.31 uM
Description: FIG. 7 illustrates the stability of CMX001. For FIG. 7, BKV-infected RPTECs were treated with freshly made CMX001 or CMX001 from a stock solution at 1 mg/ml stored for one week at 4° C. or −20° C. Supernatants were harvested 72 h p.i. and extracellular BKV load measured by qPCR. Data are presented as BKV load in percent of untreated cells set at 100%.
To examine the stability of CMX001 stock solution 1 mg/ml was put in 4 or −20° C. for one week then diluted to 0.31 uM and tested for its antiviral effect by measuring the extracellular BKV load in BKV-infected RPTEC 3 d p.i.

`CCCCCCCCCCCCCCCCOCCCOP(=O)(O)CO[C@H](CO)Cn1ccc(N)nc1=O` [CMX001] was tested, and the “activity compared to the freshly prepared drug” value (stock 1 mg/ml stored one week at 4° C.) was “less than 60%” and the “activity compared to the freshly prepared drug” value (stock 1 mg/ml stored one week at −20° C.) was “approximately 90%”.
